We go through one compound from US8685963B2, “Compounds that inhibit NFκB and BACE1 activity” (The Trustees of Columbia University in the city of New York, priority 2008, dated 2014).

For experiment [1], the system named is NFkB. As to the kind of experiment: NFkB-dependent β-lactamase reporter assay (NFkB-bla), TNFα stimulated. In kind it is cell-based.
Text: By way of example, and not of limitation, such an assay may comprise contacting a cell expressing the NFκβ-dependent reporter construct, and monitoring the level of β-lactamase expression, wherein a decrease in expression compared to a cell not contacted with the compound indicates a reduction in NFκB activity.
The above-described assays were validated using known inhibitors of the NFkB pathway (FIG. 6). The proteasome inhibitor MG-132 (1) 16 served as a positive control for the IkBα stabilization assay. The translocation assay used BAY 11-7082 (2), an agent that inhibits the TNFα-induced phosphorylation of IkBα. […] Additionally, a substituted 2-(thiophen-2-yl)quinazoline 3 which acts as an inhibitor of NFkB and Aβ1 mediated transcriptional activation (Palanki et al., 2003, Bioorg. Med. Chem. Lett. 13:4077) was used as a positive control in a secondary assay that used TNFα to stimulate NFkB-dependent expression of a β-lactamase reporter (NFkB-bla in FIG. 7). This compound also served as a negative control for the dual luciferase IkBa stabilization assay.
Experiment [2] relates to NFkB. As to the kind of experiment: TNFα-induced NFkB nuclear translocation high-content screen in HUVEC. Format: cell-based, human. An excerpt:
FIG. 5A-B depicts (A) The two-color dual luciferase based assay. IκBα is fused to a luciferase emitting greenlight (CBG68), while a red light-emitting luciferase (CBR) is present in its native state. Both luciferases are regulated by binding of the tet repressor to the tet operator (TO) binding site (TO), allowing simultaneous induction of the luciferases by the CMV promoter upon addition of doxycycline and test compounds. The CBR protein serves to normalize for non-specific effects, while the levels of the IκBα-CBG68 protein increase uniquely with inhibition of the NFκB pathway leading to IκBα degradation. (B) The nuclear translocation assay. TNFα stimulation results in nuclear translocation of NFκB, which is detected by immunofluorescence using an anti-p65 antibody and a secondary antibody labeled with an Alexa 647 fluorophore (A647). […] In the assay, nuclear translocation of the endogenous p65 RelA subunit of NFkB, at 30 min post-stimulation, was monitored using fluorescent antibody detection and an automated imaging platform. (Mayer et al., 2006, Methods Enzyme 414:266) NFkB inhibitors in this assay, such as IkBα stabilizers, were detected as compounds that interfered with p65 translocation to the nucleus.

A further experiment relates to IkBα. Briefly: dual luciferase IkBα stabilization screen in OCI-Ly3. Format: cell-based. Conditions: OCI-Ly3 cells. An excerpt: FIG. 5A-B depicts (A) The two-color dual luciferase based assay. IκBα is fused to a luciferase emitting greenlight (CBG68), while a red light-emitting luciferase (CBR) is present in its native state. Both luciferases are regulated by binding of the tet repressor to the tet operator (TO) binding site (TO), allowing simultaneous induction of the luciferases by the CMV promoter upon addition of doxycycline and test compounds. The CBR protein serves to normalize for non-specific effects, while the levels of the IκBα-CBG68 protein increase uniquely with inhibition of the NFκB pathway leading to IκBα degradation. (B) The nuclear translocation assay. TNFα stimulation results in nuclear translocation of NFκB, which is detected by immunofluorescence using an anti-p65 antibody and a secondary antibody labeled with an Alexa 647 fluorophore (A647). […]
To identify modulators of IkBα stability in ABC-DLBCL lines, such as small molecules inhibiting IKK or proteasome activity, changes in the level of an exogenous IkBα-luciferase fusion reporter expressed by an NFkB-insensitive promoter were measured. […] Upon doxycycline induction of both luciferase reporters, compounds that increased green luminescence with minimal effects on the red luminescence signal were scored as IkBα stabilizers. […]

Consider `O=S(=O)(Nc1cccc2cccnc12)c1ccccc1` [Compound 4, N-(quinolin-8-yl)benzenesulfonamide], for which the “ability to inhibit the NFkB pathway (β-lactamase reporter)” value in the experiment on NFkB [1] is given as “confirmed the ability of these compounds to inhibit the NFkB pathway”. The “identified in NFkB translocation screen” value with NFkB [2] is reported as “identified”. The “identified in IkBα stabilization screen” value with IkBα is “identified”.
